From ChEMBL document CHEMBL1201862, “PubChem BioAssay data set” (2004)
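These data come from cells grown in 96-well plates and exposed to compound for 48 hours at five concentrations. GI50: concentration for 50% inhibition of growth.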 Activity calls are given as the source filed them. No stated cut-off is given here; in the data, active = GI50 up to about 1.1 µM and inactive = higher.

How the values were obtained:
Experiment in all cases: NCI anticancer screen, dose series, 48 h
HCT-116 = system: HCT-116
IGROV-1 = system: IGROV-1
MCF7 = system: MCF7
SR = system: SR
OVCAR-5 = system: OVCAR-5
SK-MEL-5 = system: SK-MEL-5
DU-145 = system: DU-145
MDA-MB-231 = system: MDA-MB-231
SNB-19 = system: SNB-19
HT-29 = system: HT-29
EKVX = system: EKVX
OVCAR-4 = system: OVCAR-4
U-251 = system: U-251
T47D = system: T47D
CCRF-CEM = system: CCRF-CEM
NCI-H23 = system: NCI-H23
OVCAR-8 = system: OVCAR-8
MDA-N = system: MDA-N

Measured: GI50

O=C(Nc1cc(Cl)c(I)c(Cl)c1)C(F)(F)F
inactive: HCT-116 24.5 µM | IGROV-1 27.2 µM | MCF7 38.4 µM | SR 30.8 µM | OVCAR-5 22.8 µM | SK-MEL-5 18.7 µM | DU-145 42 µM | MDA-MB-231 30.1 µM | SNB-19 35.9 µM | HT-29 19.8 µM | EKVX 18.3 µM | OVCAR-4 31.1 µM | U-251 40.4 µM | T47D 25.8 µM | CCRF-CEM 24.8 µM | NCI-H23 26.2 µM | OVCAR-8 20.1 µM | MDA-N 35.8 µM

COc1c2cc(C(C)(C)C)cc1Cc1cccc(c1OCc1cccc([N+](=O)[O-])c1)Cc1cc(C(C)(C)C)cc(c1OC)Cc1cccc(c1OCc1cccc([N+](=O)[O-])c1)Cc1cc(C(C)(C)C)cc(c1OC)Cc1cccc(c1OCc1cccc([N+](=O)[O-])c1)C2
inactive: HCT-116 > 50 µM | IGROV-1 > 50 µM | MCF7 > 50 µM | SR > 50 µM | OVCAR-5 > 50 µM | SK-MEL-5 > 50 µM | DU-145 > 50 µM | MDA-MB-231 > 50 µM | SNB-19 > 50 µM | HT-29 > 50 µM | EKVX > 50 µM | U-251 > 50 µM | T47D > 50 µM | CCRF-CEM > 5 µM | NCI-H23 > 50 µM | OVCAR-8 > 50 µM | MDA-N > 50 µM

COC(=O)[C@H](Cc1c[nH]c2ccccc12)NC(=O)c1ccc(CNC(=O)/C=C/c2cccc(Oc3ccccc3)c2)cc1
inactive: HCT-116 > 100 µM | IGROV-1 > 100 µM | MCF7 > 100 µM | SR 22.4 µM | OVCAR-5 > 100 µM | SK-MEL-5 30.3 µM | DU-145 > 100 µM | MDA-MB-231 > 100 µM | SNB-19 91.6 µM | HT-29 > 100 µM | EKVX > 100 µM | OVCAR-4 19.5 µM | U-251 > 100 µM | T47D > 100 µM | CCRF-CEM 56.1 µM | NCI-H23 52.6 µM | OVCAR-8 > 100 µM | MDA-N 5.38 µM

COC(=O)c1c(OC(C)=O)ccc2c1c1cc3ccccc3c(OC(C)=O)c1n2C
inactive: HCT-116 15.4 µM | IGROV-1 2.73 µM | MCF7 9.33 µM | SR 3.69 µM | OVCAR-5 53.5 µM | SK-MEL-5 3.07 µM | DU-145 9.86 µM | MDA-MB-231 30 µM | SNB-19 68.5 µM | HT-29 15.2 µM | EKVX 41.3 µM | OVCAR-4 19.7 µM | U-251 61 µM | T47D 4.69 µM | CCRF-CEM 28.1 µM | NCI-H23 17.7 µM | OVCAR-8 14.2 µM | MDA-N 33.8 µM
